Assay results reported in patent US20060004191A1, “Modified sodium iodide symporter proteins and genes for imaging and cancer therapy” (priority 2002, published 2006).
Entries after “also recorded” stand apart in the source; their conditions may differ.

How the values were obtained:
[1] = system: F98/hNIS gliomas; test: 99mTcO4 scintigraphy of intracerebral F98/hNIS gliomas; format: in vivo, rat; conditions: about 20 min after tail vein injection
Protocol: (§1) Fischer rats weighing 175 to 200 grams (Harlan Sprague Dawley, Indianapolis, Ind.) were stereotactically implanted with tumor cells.^11,21 The tumor cells were either F98 cells or F98 cells which had been infected with and expressed a wild-type NIS protein (see Example 1). All experimental procedures received approval from Institutional Laboratory Animal Care and Use Committee of the Ohio State University. Briefly, rats were sedated by intraperitoneal (i.p.) administration of 120 mg of ketamine/20 mg of xylazine (Fort Dodge, Fort Dodge, IA) per kg of body weight, after which a plastic screw (Arrow Machine Manufacturing, Inc., Richmond, VA) was embedded into the cranium. F98 cells were injected within 10 to 15 seconds through a central hole in the plastic screw into the right hemisphere at a concentration of 10^3 (for therapeutic study) or 10^5 (for imaging study) cells in 10 μl of serum-free DMEM containing 1.4% agarose with a gelling temperature of <30° C. The screw hole was filled with bone wax immediately following withdrawal of the needle, and the operative field was flushed with betadine before the scalp incision was closed with a single sterilized clip.
(§2) Rats were anesthetized by i.p. injection of ketamine/xylazine, and then 2.0 mCi of ^99mTcO4 in 0.2 ml volume was administered via tail vein injection. […]

[2] = system: parental F98 tumors; test: 99mTcO4 scintigraphy of intracerebral parental F98 tumors; format: in vivo, rat; conditions: about 20 min after tail vein injection
Protocol: as §1, §2

[3] = serial 123I scintigraphy, radioiodide retention in thyroid; format: in vivo, rat; conditions: in the thyroid, from time activity curve, tail vein injection
Protocol: (§3) Serial ^123I images were obtained to determine the retention of radioiodide in the hNIS-transduced tumors (FIG. 7A). The average survival time for rats implanted with 10^5 F98/hNIS glioma cells was about 14-16 days. For studies of ^123I retention, images were acquired on days 13 to 15 following tumor implantation at which time ^123I (0.25 mCi) was administered via tail vein injection. Modified conjugate images were obtained sequentially with the rat first in dorsal-ventral and then ventral-dorsal positions on the top of the LEUHR collimator at 5 min, 20 min, 1 hr, 4 hr, 24 hr, and 37 hr following injection. The acquisition time at 5 min post-injection image was 5 min, and the acquisition times at subsequent time points were corrected for the physical decay of ^123I. Regions of interest (ROI) were drawn over the tumor, thyroid, and shoulder region (as a background) in two views (vertex and then ventral) of pinhole images for each different time point, and the geometric means of the count rates (counts/pixel) for each ROI in each view were calculated. Biological half-life of radioiodine was estimated based on the time activity curve generated by plotting the tumor ROI count rates versus time.

[4] = system: F98/hNIS gliomas; test: serial 123I scintigraphy, radioiodide retention in tumor; format: in vivo, rat
Protocol: as §1
as §3, with “The acquisition time at 5 min post-injection image was 5 min, and the acquisition times at subsequent time points were corrected for the physical decay of ^123I.” left out, “Biological half-life of radioiodine was estimated based on the time activity curve generated by plotting the tumor ROI count rates versus time.” left out

[5] = system: F98/LXSN tumors; test: 131I therapy study, intracerebral empty vector transduced tumors; format: in vivo, rat
Protocol: as §1
For ^131I therapy studies, rats were implanted stereotatically with 1×10^3 F98 cells on day 0, and the animals were divided into 3 groups: empty vector transduced tumors with ^131I treatment (F98/LXSN+^131I), hNIS transduced tumors without ^131I treatment (F98/hNIS—^131I), hNIS transduced tumors with ^131I treatment (F98/hNIS+^131I). Each group contained 12 rats. To minimize exposure of the thyroid gland to ^131I, rats were placed on 1 ppm thyroxine (T4)-supplemented diet (Harlan Teklad, Madison, Wis.) beginning one week prior to the first day of ^131I treatment. […] Therefore, animals displaying these signs were sacrificed, and survival times were determined from the day of tumor implantation to the day of sacrifice plus 1 day.^21,24 The observers were not blinded to sacrifice the rats. […] Tumor size was measured as (the longest length)×(the length perpendicular to the longest length) in tumor sections. […]

[6] = system: F98/hNIS tumors; test: 131I therapy study, intracerebral hNIS-transduced tumors; format: in vivo, rat
Protocol: as §1
For ^131I therapy studies, rats were implanted stereotatically with 1×10^3 F98 cells on day 0, and the animals were divided into 3 groups: empty vector transduced tumors with ^131I treatment (F98/LXSN+^131I), hNIS transduced tumors without ^131I treatment (F98/hNIS—^131I), hNIS transduced tumors with ^131I treatment (F98/hNIS+^131I). Each group contained 12 rats. To minimize exposure of the thyroid gland to ^131I, rats were placed on 1 ppm thyroxine (T4)-supplemented diet (Harlan Teklad, Madison, Wis.) beginning one week prior to the first day of ^131I treatment. Animals received three i.p. injections, 4 mCi of ^131I per injection, on days 12, 14 and 16 post-implantation for a total of 12 mCi. The tumor size index on day 14 was assumed to be ˜2 mm^2 based on a previous study.^18 Animals were weighed three times per week. […] Therefore, animals displaying these signs were sacrificed, and survival times were determined from the day of tumor implantation to the day of sacrifice plus 1 day.^21,24 The observers were not blinded to sacrifice the rats. To confirm that all animals had progressively growing tumors at the time of death, the brains were removed, fixed in 10% neutral buffered formalin, and then 2-mm coronal sections were cut with a rat brain slicer (Zivic-Miller Laboratories, Inc., Allison Park, PA), and processed for routine histopathological examination. Tumor size was measured as (the longest length)×(the length perpendicular to the longest length) in tumor sections. Survival among different experimental groups was compared using unpaired t test as well as Log-rank test. Tumor sizes among different experimental groups were compared using unpaired t test. The P value of <0.05 were considered statistically significant.

[7] = target: T1, hNIS (Homo sapiens, UniProt Q92911); test: inhibition of induced RAIU in hNIS-transduced F98 cells; format: cell-based
T1 construct: expressed in transfected cells; host or cells: F98 rat glioma cells infected with L-hNIS-SN recombinant retrovirus, G418-selected clone
T1 sequence (Q92911 1-643): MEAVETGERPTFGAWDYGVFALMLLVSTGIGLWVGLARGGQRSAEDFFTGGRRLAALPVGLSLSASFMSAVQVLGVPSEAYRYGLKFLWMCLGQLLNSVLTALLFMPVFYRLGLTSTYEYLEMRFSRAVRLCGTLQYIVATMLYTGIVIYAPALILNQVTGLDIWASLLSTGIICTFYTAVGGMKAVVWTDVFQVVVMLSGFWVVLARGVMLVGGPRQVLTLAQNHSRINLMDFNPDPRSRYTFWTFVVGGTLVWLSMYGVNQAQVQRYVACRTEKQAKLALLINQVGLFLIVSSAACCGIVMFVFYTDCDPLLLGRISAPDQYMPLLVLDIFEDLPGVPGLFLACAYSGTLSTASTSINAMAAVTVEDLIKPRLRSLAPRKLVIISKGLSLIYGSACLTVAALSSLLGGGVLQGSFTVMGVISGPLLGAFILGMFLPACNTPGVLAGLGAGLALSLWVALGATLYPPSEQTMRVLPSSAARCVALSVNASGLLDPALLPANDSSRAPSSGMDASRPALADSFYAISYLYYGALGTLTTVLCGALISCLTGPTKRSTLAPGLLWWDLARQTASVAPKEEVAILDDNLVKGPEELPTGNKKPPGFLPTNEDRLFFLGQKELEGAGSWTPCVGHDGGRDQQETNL
Protocol: NIS function in the hNIS-transduced F98 glioma cells was tested in vitro by radioiodide uptake assay^5 (RAIU). Cells (2×10^5 cells per well) were seeded in 24-well plates. At various times after seeding, the cells were incubated for 30 min at 37° C., 5.0% CO2 with growth media containing 2.0 μCi Na ^125I and 5-10 μM NaI carrier. The medium was aspirated and cells were quickly washed twice with ice-cold Hank's balanced salt solution (HBSS). Cells were then lysed by incubation with 95% ethanol. The radioactivity of the cell lysate was measured by a γ-counter (Packard Instruments, Downers Grove, Ill., USA). Experiments were performed in triplicate. The RAIU activity of the infected cells was expressed in terms of fold increase compared with that of mock-infected parental cells.

[8] = system: endogenous rat NIS in thyroid; test: thyroid 99mTcO4 scintigraphy and NIS Western blot in rats fed T4-supplemented diet; format: in vivo
Protocol: Western blot analysis was performed as previously described.^23 Briefly, the tumors were removed from the animals and homogenized in a homogenizing buffer (10 mM Tris-HCl (pH 7.5), 5 mM NaCl, 1 mM EDTA, 0.1 mM PMSF, 50 μg/ml leupeptin) containing 0.25 M sucrose. The lysates were centrifuged at 700 g for 10 min at 4° C. The supernatants were further centrifuged at 200,000 g for 60-90 min at 4° C. to obtain membrane fractions, which were resuspended in homogenizing buffer without sucrose and kept at −80° C. until use. The membrane fractions ([…] per lane) were solubilized for 30 min at 37° C. in the same volume of reducing sample buffer (0.125 M Tris-HCl (pH 6.8), 4% SDS, 10% β-mercaptoethanol, 20% glycerol) and subjected to 4-20% gradient or 7.5% SDS-PAGE. The proteins were transferred on to a nitrocellulose filter which was then blocked with 5% nonfat dry mild in TBST buffer (10 mM Tris-HCl (pH 8.0), 150 mM NaCl, 0.1% Tween 20) at 4° C. overnight. […]
Rats fed a T4-supplemented diet were expected to have reduced RAIU in thyroid, as the endogenous NIS expression and activity in thyroid tissues is TSH-dependent. […] In comparison, thyroid was readily detectable by ^99mTcO4 scintigraphy in rats fed a normal diet. […]

[9] = F98/LXSN with 131I treatment group
[10] = F98/hNIS with 131I treatment group

SMILES: [O]=[99Tc](=[O])(=[O])[O-] [99mTcO4]
- 99mTcO4 uptake in tumor [1]: intense
- 99mTcO4 uptake in tumor [2]: no ^99mTcO4 uptake was found

SMILES: [123IH] [123I]
- biological half-life of 123I [3]: greater than 20 hours
- 123I uptake in tumor ([4]; F98/hNIS gliomas, by 37 hours post-injection): barely detectable
- radioiodide uptake in tumor ([4]; F98/hNIS gliomas, through 24 hrs post-injection): evident
- biological half-life of 123I ([4]; in F98/hNIS gliomas, from time activity curve, tail vein injection): 10 hours

SMILES: [131IH] [131I]
- average survival time ([5]; F98/LXSN tumors with 131I treatment, 3 i.p. injections, total 12 mCi): 30.4 ± 3.2 days
- tumor size at sacrifice, length perpendicular to the longest length [5, 9]: 6.4±1.6 mm
- tumor size at sacrifice, longest length [5, 9]: 8.7±1.6 mm
- average survival time ([6]; F98/hNIS tumors with 131I treatment, 3 i.p. injections, total 12 mCi): 45 ± 8.6 days
- prolongation of average survival time ([6]; F98/hNIS with 131I compared to F98/LXSN with 131I, P<0.01): ~2 weeks
- prolongation of average survival time ([6]; F98/hNIS with 131I compared to F98/hNIS without 131I, P<0.05): 6 days
- tumor size at sacrifice, length perpendicular to the longest length [6, 10]: 6.1±1.5 mm
- tumor size at sacrifice, longest length [6, 10]: 8.5±1.9 mm

SMILES: [O-][Cl+3]([O-])([O-])O [NaClO4, sodium perchlorate]
- effect on induced RAIU [7]: suppressed; also recorded: inhibited

SMILES: N[C@@H](Cc1cc(I)c(Oc2cc(I)c(O)c(I)c2)c(I)c1)C(=O)O [T4, thyroxine]
- NIS glycoprotein in thyroid by Western blot ([8]; rats fed T4-supplemented diet): barely detected
- thyroid detectability by 99mTcO4 scintigraphy ([8]; rats fed T4-supplemented diet for 11 days): not detectable
